Assay results published in patent US10533000B2, “Metabotrophic glutamate receptor 5 modulators and methods of use thereof” (Sunovion Pharmaceuticals, Inc., priority 2011, dated 2020).

biological target: mGluR5 (Homo sapiens, UniProt P41594); test: mGluR5 positive allosteric modulator (PAM) functional assay; format: cell-based
Sequence (P41594 21-1212): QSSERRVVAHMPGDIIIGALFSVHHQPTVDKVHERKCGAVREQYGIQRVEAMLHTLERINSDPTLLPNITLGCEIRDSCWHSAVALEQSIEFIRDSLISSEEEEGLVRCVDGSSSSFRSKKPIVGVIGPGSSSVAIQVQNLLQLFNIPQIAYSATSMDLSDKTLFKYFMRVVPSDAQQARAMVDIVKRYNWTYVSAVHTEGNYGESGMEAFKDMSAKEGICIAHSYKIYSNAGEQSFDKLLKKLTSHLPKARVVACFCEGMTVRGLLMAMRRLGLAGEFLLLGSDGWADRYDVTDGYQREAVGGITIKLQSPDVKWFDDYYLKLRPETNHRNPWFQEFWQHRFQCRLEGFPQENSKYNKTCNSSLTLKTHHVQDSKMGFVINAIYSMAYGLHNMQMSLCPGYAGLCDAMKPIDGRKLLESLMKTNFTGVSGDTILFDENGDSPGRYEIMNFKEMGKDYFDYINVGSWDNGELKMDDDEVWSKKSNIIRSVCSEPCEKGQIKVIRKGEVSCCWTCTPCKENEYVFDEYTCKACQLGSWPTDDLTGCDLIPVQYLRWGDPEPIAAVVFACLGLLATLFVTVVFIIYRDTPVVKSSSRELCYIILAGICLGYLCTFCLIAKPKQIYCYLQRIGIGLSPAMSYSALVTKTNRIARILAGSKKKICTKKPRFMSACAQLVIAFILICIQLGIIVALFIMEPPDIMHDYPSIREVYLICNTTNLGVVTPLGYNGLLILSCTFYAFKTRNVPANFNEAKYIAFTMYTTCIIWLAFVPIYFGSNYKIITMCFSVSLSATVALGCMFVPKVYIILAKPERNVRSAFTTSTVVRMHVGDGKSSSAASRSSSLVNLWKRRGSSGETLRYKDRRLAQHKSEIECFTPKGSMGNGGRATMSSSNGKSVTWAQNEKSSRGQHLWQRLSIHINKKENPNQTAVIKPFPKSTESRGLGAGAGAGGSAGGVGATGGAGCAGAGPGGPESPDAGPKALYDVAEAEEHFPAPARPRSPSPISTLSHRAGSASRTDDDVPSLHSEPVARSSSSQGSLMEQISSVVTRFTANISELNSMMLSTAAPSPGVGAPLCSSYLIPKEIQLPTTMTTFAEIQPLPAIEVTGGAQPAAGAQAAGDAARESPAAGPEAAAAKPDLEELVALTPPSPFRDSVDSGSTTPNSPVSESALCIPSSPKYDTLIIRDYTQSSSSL

SMILES	EC50 [nM]
CCC(C)c1nc(-c2ccc(C#Cc3ccccn3)nc2)no1 (stereo not drawn) [Compound 86, 5-(sec-butyl)-3-(6-(pyridin-2-ylethynyl)pyridin-3-yl)-1,2,4-oxadiazole]	30 to 100
CCC(CC)c1nc(-c2ccc(C#Cc3ccccn3)nc2)no1 [Compound 87, 5-(pentan-3-yl)-3-(6-(pyridin-2-ylethynyl)pyridin-3-yl)-1,2,4-oxadiazole]	≤ 30
CCC(OC)c1nc(-c2ccc(C#Cc3ccccn3)nc2)no1 (stereo not drawn) [Compound 89, 5-(1-methoxypropyl)-3-(6-(pyridin-2-ylethynyl)pyridin-3-yl)-1,2,4-oxadiazole]	300 to 1000
CCC(C)c1nc(-c2ccc(C#Cc3ccncc3)nc2)no1 (stereo not drawn) [Compound 90, 5-(sec-butyl)-3-(6-(pyridin-4-ylethynyl)pyridin-3-yl)-1,2,4-oxadiazole]	≤ 30
CCC(CC)c1nc(-c2ccc(C#Cc3ccncc3)nc2)no1 [Compound 91, 5-(pentan-3-yl)-3-(6-(pyridin-4-ylethynyl)pyridin-3-yl)-1,2,4-oxadiazole]	≤ 30
COC(C)c1nc(-c2ccc(C#Cc3ccncc3)nc2)no1 (stereo not drawn) [Compound 92, 5-(1-methoxyethyl)-3-(6-(pyridin-4-ylethynyl)pyridin-3-yl)-1,2,4-oxadiazole]	100 to 300
CCC(OC)c1nc(-c2ccc(C#Cc3ccncc3)nc2)no1 (stereo not drawn) [Compound 93]	30 to 100
CCC(C)c1nc(-c2ccc(C#Cc3cccc(F)c3)cn2)no1 (stereo not drawn) [Compound 94, 5-(sec-butyl)-3-(5-((3-fluorophenyl)ethynyl)pyridin-2-yl)-1,2,4-oxadiazole]	≤ 30
Fc1cccc(C#Cc2ccc(-c3noc(C4CCCC4)n3)nc2)c1 [Compound 95, 5-cyclopentyl-3-(5-((3-fluorophenyl)ethynyl)pyridin-2-yl)-1,2,4-oxadiazole]	≤ 30
COC(C)c1nc(-c2ccc(C#Cc3cccc(F)c3)cn2)no1 (stereo not drawn) [Compound 96, 3-(5-((3-fluorophenyl)ethynyl)pyridin-2-yl)-5-(1-methoxyethyl)-1,2,4-oxadiazole]	≤ 30
CCC(OC)c1nc(-c2ccc(C#Cc3cccc(F)c3)cn2)no1 (stereo not drawn) [Compound 97, 3-(5-((3-fluorophenyl)ethynyl)pyridin-2-yl)-5-(1-methoxypropyl)-1,2,4-oxadiazole]	≤ 30
Fc1cccc(C#Cc2ccc(-c3noc(C4COCCN4)n3)nc2)c1 (stereo not drawn) [Compound 98]	30 to 100
CC(C)(C)OC(=O)N1CCC1c1nc(-c2ccc(C#Cc3cccc(F)c3)cn2)no1 (stereo not drawn) [Compound 99, tert-butyl 2-(3-(5-((3-fluorophenyl)ethynyl)pyridin-2-yl)-1,2,4-oxadiazol-5-yl)azetidine-1-carboxylate]	300 to 1000
CN1CCC1c1nc(-c2ccc(C#Cc3cccc(F)c3)cn2)no1 (stereo not drawn) [Compound 101, 3-(5-((3-fluorophenyl)ethynyl)pyridin-2-yl)-5-(1-methylazetidin-2-yl)-1,2,4-oxadiazole]	30 to 100
CNCc1nc(-c2ccc(C#Cc3cccc(F)c3)cn2)no1 [Compound 102, 1-(3-(5-((3-fluorophenyl)ethynyl)pyridin-2-yl)-1,2,4-oxadiazol-5-yl)-N-methylmethanamine]	300 to 1000
CN(C)Cc1nc(-c2ccc(C#Cc3cccc(F)c3)cn2)no1 [Compound 103, 1-(3-(5-((3-fluorophenyl)ethynyl)pyridin-2-yl)-1,2,4-oxadiazol-5-yl)-N,N-dimethylmethanamine]	30 to 100
CC(c1nc(-c2ccc(C#Cc3cccc(F)c3)cn2)no1)N(C)C (stereo not drawn) [Compound 104, 1-(3-(5-((3-fluorophenyl)ethynyl)pyridin-2-yl)-1,2,4-oxadiazol-5-yl)-N,N-dimethylethanamine]	100 to 300
C[C@H](c1nc(-c2ccc(C#Cc3cccc(F)c3)cn2)no1)N(C)C [Compound 105, (R)-1-(3-(5-((3-fluorophenyl)ethynyl)pyridin-2-yl)-1,2,4-oxadiazol-5-yl)-N,N-dimethylethanamine]	30 to 100
C[C@@H](c1nc(-c2ccc(C#Cc3cccc(F)c3)cn2)no1)N(C)C [Compound 106, (S)-1-(3-(5-((3-fluorophenyl)ethynyl)pyridin-2-yl)-1,2,4-oxadiazol-5-yl)-N,N-dimethylethanamine]	≤ 30
CNC(C)c1nc(-c2ccc(C#Cc3cccc(F)c3)cn2)no1 (stereo not drawn) [Compound 107, 1-(3-(5-((3-fluorophenyl)ethynyl)pyridin-2-yl)-1,2,4-oxadiazol-5-yl)-N-methylethanamine]	30 to 100
CC(c1nc(-c2ccc(C#Cc3cccc(F)c3)cn2)no1)N1CCCC1 (stereo not drawn) [Compound 108, 3-(5-((3-fluorophenyl)ethynyl)pyridin-2-yl)-5-(1-(pyrrolidin-1-yl)ethyl)-1,2,4-oxadiazole]	≤ 30

SMILES	EC50 [nM]
CC(NC1CC1)c1nc(-c2ccc(C#Cc3cccc(F)c3)cn2)no1 (stereo not drawn) [Compound 109, N-(1-(3-(5-((3-fluorophenyl)ethynyl)pyridin-2-yl)-1,2,4-oxadiazol-5-yl)ethyl)cyclopropanamine]	≤ 30
CC(C)NC(C)c1nc(-c2ccc(C#Cc3cccc(F)c3)cn2)no1 (stereo not drawn) [Compound 110, N-(1-(3-(5-((3-fluorophenyl)ethynyl)pyridin-2-yl)-1,2,4-oxadiazol-5-yl)ethyl)propan-2-amine]	30 to 100
CCN(CC)C(C)c1nc(-c2ccc(C#Cc3cccc(F)c3)cn2)no1 (stereo not drawn) [Compound 111, N,N-diethyl-1-(3-(5-((3-fluorophenyl)ethynyl)pyridin-2-yl)-1,2,4-oxadiazol-5-yl)ethanamine]	≤ 30
CNC(C)(C)c1nc(-c2ccc(C#Cc3cccc(F)c3)cn2)no1 [Compound 112, 2-(3-(5-((3-fluorophenyl)ethynyl)pyridin-2-yl)-1,2,4-oxadiazol-5-yl)-N-methylpropan-2-amine]	≤ 30
CN(C)C(C)(C)c1nc(-c2ccc(C#Cc3cccc(F)c3)cn2)no1 [Compound 113, 2-(3-(5-((3-fluorophenyl)ethynyl)pyridin-2-yl)-1,2,4-oxadiazol-5-yl)-N,N-dimethylpropan-2-amine]	≤ 30
CCC(N)c1nc(-c2ccc(C#Cc3cccc(F)c3)cn2)no1 (stereo not drawn) [Compound 114, 1-(3-(5-((3-fluorophenyl)ethynyl)pyridin-2-yl)-1,2,4-oxadiazol-5-yl)propan-1-amine]	100 to 300
CCC(NC)c1nc(-c2ccc(C#Cc3cccc(F)c3)cn2)no1 (stereo not drawn) [Compound 115, 1-(3-(5-((3-fluorophenyl)ethynyl)pyridin-2-yl)-1,2,4-oxadiazol-5-yl)-N-methylpropan-1-amine]	30 to 100
CCC(c1nc(-c2ccc(C#Cc3cccc(F)c3)cn2)no1)N(C)C (stereo not drawn) [Compound 116, 1-(3-(5-((3-fluorophenyl)ethynyl)pyridin-2-yl)-1,2,4-oxadiazol-5-yl)-N,N-dimethylpropan-1-amine]	≤ 30
CCC(NC1CC1)c1nc(-c2ccc(C#Cc3cccc(F)c3)cn2)no1 (stereo not drawn) [Compound 117, N-(1-(3-(5-((3-fluorophenyl)ethynyl)pyridin-2-yl)-1,2,4-oxadiazol-5-yl)propyl)cyclopropanamine]	≤ 30
CN(C)C1(c2nc(-c3ccc(C#Cc4cccc(F)c4)cn3)no2)CC1 [Compound 118, 1-(3-(5-((3-fluorophenyl)ethynyl)pyridin-2-yl)-1,2,4-oxadiazol-5-yl)-N,N-dimethylcyclopropanamine]	≤ 30
Fc1cccc(C#Cc2ccc(-c3noc(C4CCCN4)n3)nc2)c1 (stereo not drawn) [Compound 119, 3-(5-((3-fluorophenyl)ethynyl)pyridin-2-yl)-5-(pyrrolidin-2-yl)-1,2,4-oxadiazole]	300 to 1000
CC1(c2nc(-c3ccc(C#Cc4cccc(F)c4)cn3)no2)CCCN1 (stereo not drawn) [Compound 122, 3-(5-((3-fluorophenyl)ethynyl)pyridin-2-yl)-5-(2-methylpyrrolidin-2-yl)-1,2,4-oxadiazole]	100 to 300
Fc1cccc(C#Cc2ccc(-c3noc(C4CCCN4CCC(F)(F)F)n3)nc2)c1 (stereo not drawn) [Compound 123, 3-(5-((3-fluorophenyl)ethynyl)pyridin-2-yl)-5-(1-(3,3,3-trifluoropropyl)pyrrolidin-2-yl)-1,2,4-oxadiazole]	≤ 30
C#CCN1CCCC1c1nc(-c2ccc(C#Cc3cccc(F)c3)cn2)no1 (stereo not drawn) [Compound 124, 3-(5-((3-fluorophenyl)ethynyl)pyridin-2-yl)-5-(1-(prop-2-yn-1-yl)pyrrolidin-2-yl)-1,2,4-oxadiazole]	≤ 30
N#CCN1CCCC1c1nc(-c2ccc(C#Cc3cccc(F)c3)cn2)no1 (stereo not drawn) [Compound 125, 2-(2-(3-(5-((3-fluorophenyl)ethynyl)pyridin-2-yl)-1,2,4-oxadiazol-5-yl)pyrrolidin-1-yl)acetonitrile]	30 to 100
Fc1cccc(C#Cc2ccc(-c3noc(C4CCCN4C4CCC4)n3)nc2)c1 (stereo not drawn) [Compound 126, 5-(1-cyclobutylpyrrolidin-2-yl)-3-(5-((3-fluorophenyl)ethynyl)pyridin-2-yl)-1,2,4-oxadiazole]	30 to 100
C=C1CN[C@H](c2nc(-c3ccc(C#Cc4cccc(F)c4)cn3)no2)C1 [Compound 127, (S)-3-(5-((3-fluorophenyl)ethynyl)pyridin-2-yl)-5-(4-methylenepyrrolidin-2-yl)-1,2,4-oxadiazole]	100 to 300
O[C@H]1CN[C@H](c2nc(-c3ccc(C#Cc4cccc(F)c4)cn3)no2)C1 [Compound 129, (3R,5S)-5-(3-(5-((3-fluorophenyl)ethynyl)pyridin-2-yl)-1,2,4-oxadiazol-5-yl)pyrrolidin-3-ol]	300 to 1000
CN1C[C@H](O)C[C@H]1c1nc(-c2ccc(C#Cc3cccc(F)c3)cn2)no1 [Compound 130, (3R,5S)-5-(3-(5-((3-fluorophenyl)ethynyl)pyridin-2-yl)-1,2,4-oxadiazol-5-yl)-1-methylpyrrolidin-3-ol]	30 to 100
CN1C[C@H](O)C[C@@H]1c1nc(-c2ccc(C#Cc3cccc(F)c3)cn2)no1 [Compound 132, (3R,5R)-5-(3-(5-((3-fluorophenyl)ethynyl)pyridin-2-yl)-1,2,4-oxadiazol-5-yl)-1-methylpyrrolidin-3-ol]	100 to 300
CO[C@H]1CN[C@@H](c2nc(-c3ccc(C#Cc4cccc(F)c4)cn3)no2)C1 [Compound 133, 3-(5-((3-fluorophenyl)ethynyl)pyridin-2-yl)-5-((2R,4R)-4-methoxypyrrolidin-2-yl)-1,2,4-oxadiazole]	30 to 100
